Experimental data as given in the supplement of paper PMC10307832.

Columns and labels:
Test in all cases: relative viability (nuclei count vs DMSO), 5 days (fraction); higher = more cells survive
[1] = compound: N[C@@H]1CCCN(c2c(/C=C3\SC(=O)NC3=O)cccc2-c2ccccc2)C1 [AZD1208] + CS(=O)(=O)CCNCc1ccc(-c2ccc3ncnc(Nc4ccc(OCc5cccc(F)c5)c(Cl)c4)c3c2)o1 [Lapatinib] (partner 2 µM)
Summary of the method: (§1)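 Dosing by pin tool came one day after lung cancer cell lines were seeded in 1536-well plates, using either one drug or a fixed anchor-drug dose plus five library-drug doses (not always all listed) in √10 steps. After 5 days, nuclei were counted on 4× images. Relative viability is treated-well nuclei count divided by vehicle-well nuclei count, and values are medians of duplicate plates.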

[2] = compound: N[C@@H]1CCCN(c2c(/C=C3\SC(=O)NC3=O)cccc2-c2ccccc2)C1 [AZD1208] + Cc1nc(Nc2ncc(C(=O)Nc3c(C)cccc3Cl)s2)cc(N2CCN(CCO)CC2)n1 [Dasatinib] (partner 0.075 µM)
Summary of the method: as §1

[3] = compound: CN1CCN(CC1)C2=CC(=C(C=C2)NC3=NC(=C(S3)C(=O)C4=C(C=CC=C4Cl)Cl)N)OC [XMD14-99] + COc1cccc2cc(-c3nc([C@H]4CC[C@H](C(=O)O)CC4)n4ncnc(N)c34)[nH]c12 [OSI-027] (partner 0.5 µM)
Summary of the method: as §1

[4] = compound: CN1CCN(CC1)C2=CC(=C(C=C2)NC3=NC(=C(S3)C(=O)C4=C(C=CC=C4Cl)Cl)N)OC [XMD14-99] + CS(=O)(=O)N1CCN(Cc2cc3nc(-c4cccc5[nH]ncc45)nc(N4CCOCC4)c3s2)CC1 [Pictilisib] (partner 1 µM)
Summary of the method: as §1

Cell Line | relative viability ([1]; first compound 0.08 µM) | relative viability ([1]; first compound 0.253 µM) | relative viability ([1]; first compound 0.8 µM) | relative viability ([1]; first compound 2.53 µM) | relative viability ([1]; first compound 8 µM) | relative viability ([2]; first compound 0.08 µM) | relative viability ([2]; first compound 0.253 µM) | relative viability ([2]; first compound 0.8 µM) | relative viability ([2]; first compound 2.53 µM) | relative viability ([2]; first compound 8 µM) | relative viability ([3]; first compound 0.08 µM) | relative viability ([3]; first compound 0.8 µM) | relative viability ([3]; first compound 2.53 µM) | relative viability ([3]; first compound 8 µM) | relative viability ([4]; first compound 0.08 µM) | relative viability ([4]; first compound 0.8 µM) | relative viability ([4]; first compound 2.53 µM) | relative viability ([4]; first compound 8 µM)
NCI-H520 | 0.805 | 1.07 | 0.806 | 0.83 | 0.629 | 0.151 | 0.196 | 0.173 | 0.154 | 0.178 | 0.251 | 0.262 | 0.231 | 0.206 | 0.254 | 0.266 | 0.277 | 0.266
EKVX | 0.194 | 0.191 | 0.194 | 0.168 | 0.176 | 0.637 | 0.245 | 0.51 | 0.498 | 0.48 | 0.653 | 0.72 | 0.655 | 0.586 | 0.422 | 0.488 | 0.487 | 0.35
NCI-H358 | 0.343 | 0.44 | 0.38 | 0.36 | 0.35 | 0.138 | 0.142 | 0.139 | 0.116 | 0.142 | 0.702 | 0.813 | 0.707 | 0.404 | 0.327 | 0.301 | 0.229 | 0.176
EPLC-272H | 0.987 | 0.866 | 0.841 | 0.825 | 0.717 | 0.3 | 0.363 | 0.286 | 0.305 | 0.252 | 0.311 | 0.32 | 0.282 | 0.263 | 0.338 | 0.338 | 0.284 | 0.247
NCI-H1563 | 0.918 | 1 | 1.02 | 1.01 | 0.915 | 0.465 | 0.433 | 0.421 | 0.447 | 0.395 | 0.753 | 0.766 | 0.733 | 0.641 | 0.683 | 0.632 | 0.666 | 0.568
NCI-H1395 | 1.12 | 0.918 | 0.945 | 1.1 | 0.812 | 0.453 | 0.373 | 0.36 | 0.38 | 0.356 | 0.687 | 0.639 | 0.654 | 0.584 | 0.626 | 0.67 | 0.585 | 0.535
NCI-H2228 | 1.03 | 1.3 | 0.971 |  | 0.652 | 0.476 | 0.521 | 0.398 | 0.43 | 0.342 | 0.687 | 0.583 | 0.505 | 0.199 | 0.567 | 0.31 | 0.271 | 0.184
LXF-289 | 0.941 | 0.954 | 0.917 | 0.958 | 0.868 | 0.227 | 0.175 | 0.195 | 0.181 | 0.15 | 0.839 | 0.84 | 0.819 | 0.616 | 0.699 | 0.824 | 0.753 | 0.597
